# Experimental data: US12729458B2, “Discovery and evolution of biologically active metabolites” (The Regents of the University of Colorado, a Body Corporate, priority 2020, dated 2026)
# Assays:
# PTP1B = target: T1, PTP1B (Homo sapiens, UniProt P18031); experiment: X-ray crystallography of PTP1B soaked with ligand; format: binding, H. sapiens
# T1 construct: In this study, we used a well-studied truncation variant (i.e., PTP1B1-321); His-tag; made in house; host or cells: E. coli BL21 (DE3), pET21b
# T1 sequence (P18031 1-321): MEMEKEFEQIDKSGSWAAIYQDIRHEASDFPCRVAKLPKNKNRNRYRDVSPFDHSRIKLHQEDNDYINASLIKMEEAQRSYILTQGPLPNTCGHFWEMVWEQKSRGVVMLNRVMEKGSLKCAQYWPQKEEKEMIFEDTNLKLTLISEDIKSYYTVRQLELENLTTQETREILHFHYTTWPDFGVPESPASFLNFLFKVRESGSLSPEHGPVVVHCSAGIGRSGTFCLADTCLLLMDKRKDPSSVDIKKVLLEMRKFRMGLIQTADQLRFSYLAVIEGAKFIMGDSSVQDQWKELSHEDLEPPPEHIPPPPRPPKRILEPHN
# Procedure: X-ray crystallography. We prepared crystals of PTP1B by using hanging drop vapor diffusion. In brief, we added 2 μL of PTP1B (~600 μM PTP1B, 50 mM HEPES, pH 7.3) to 6 μL of crystallization solution (100 mM HEPES, 200 mM magnesium acetate, and 14% polyethylene glycol 8000, pH 7.5) and incubated the resulting droplets over crystallization solution for one week at 4° C. (EasyXtal CrystalSupport, Qiagen). We soaked crystals with ligand by transferring them to droplets formed with 6 μL of crystallization solution and 1 μL of ligand solution (10 mM in DMSO), which we incubated for 2-5 days at 4° C. We prepared all […] for freezing by soaking them in cryoprotectant formed from a 70/30 (v/v) mixture of buffer (100 mM HEPES, 200 mM magnesium acetate, and 25% polyethylene glycol 8000, pH 7.5) and glycerol.
# We collected X-ray diffraction data through the Collaborative Crystallography Program at Lawrence Berkeley National Lab (ALS ENABLE, beamline 8.2.1, 100 K, 1.00003 Å). We performed integration, scaling, and merging of X-ray diffraction data using the xia2 software package^79, and we carried out molecular replacement and structure refinement with the PHENIX graphical interface,^80 supplemented with manual model adjustment in COOT^81 and one round of PDB-REDO^82 (the latter, only for the PTP1B-AD complex).
# SHP1 = target: T2, SHP1 (Homo sapiens, UniProt P29350); experiment: SHP1-catalyzed hydrolysis of 4-MUP in the presence of terpenoids; format: biochemical, H. sapiens
# T2 construct: made in house; host or cells: E. coli BL21 (DE3)
# Procedure: Enzyme kinetics. To examine terpenoid-mediated inhibition, we measured PTP-catalyzed hydrolysis of p-nitrophenyl phosphate (pNPP) or 4-methylumbelliferyl phosphate (4-MUP, used when KM for pNPP was large) in the presence of various concentrations of terpenoids. Each reaction included PTP (0.05 μM PTP1B/TCPTP or 0.1 μM SHP1/SHP2 in 50 mM HEPES, 0.5 mM TCEP, 50 μg/ml BSA), pNPP (0.33, 0.67, 2, 5, 10, and 15 mM) or 4-MUP (0.13, 0.27, 0.8, 2.27, 2.93, 4.53, 7.07, and 8 mM), inhibitor (with concentrations listed in the figures), buffer (50 mM HEPES pH=7.3, 50 μg/ml BSA), and DMSO at 10% v/v. We monitored the formation of p-nitrophenol by measuring absorbance at 405 nm every 10 seconds for 5 minutes on a SpectraMax M2 plate reader and the formation of 4-methylumbelliferyl by measuring fluorescence at 450 nm (370 nm ex, 435 nm cutoff, medium gain).
# We used a custom MATLAB script to process all raw kinetic data. This script removed all concentration values that fell outside of either (i) the range of our standard curve (absorbance/fluorescence vs. μM; FIG. 39) or (ii) the initial rate regime (>10% of the pNPP or 4-MUP concentration used in the assay). When this step reduced kinetic dataset to fewer than ten points, we re-measured those datasets to collect at least ten. We fit final datasets, in turn, with a linear regression model (using Matlab's backslash operator). […]
# T2 sequence (P29350 whole entry): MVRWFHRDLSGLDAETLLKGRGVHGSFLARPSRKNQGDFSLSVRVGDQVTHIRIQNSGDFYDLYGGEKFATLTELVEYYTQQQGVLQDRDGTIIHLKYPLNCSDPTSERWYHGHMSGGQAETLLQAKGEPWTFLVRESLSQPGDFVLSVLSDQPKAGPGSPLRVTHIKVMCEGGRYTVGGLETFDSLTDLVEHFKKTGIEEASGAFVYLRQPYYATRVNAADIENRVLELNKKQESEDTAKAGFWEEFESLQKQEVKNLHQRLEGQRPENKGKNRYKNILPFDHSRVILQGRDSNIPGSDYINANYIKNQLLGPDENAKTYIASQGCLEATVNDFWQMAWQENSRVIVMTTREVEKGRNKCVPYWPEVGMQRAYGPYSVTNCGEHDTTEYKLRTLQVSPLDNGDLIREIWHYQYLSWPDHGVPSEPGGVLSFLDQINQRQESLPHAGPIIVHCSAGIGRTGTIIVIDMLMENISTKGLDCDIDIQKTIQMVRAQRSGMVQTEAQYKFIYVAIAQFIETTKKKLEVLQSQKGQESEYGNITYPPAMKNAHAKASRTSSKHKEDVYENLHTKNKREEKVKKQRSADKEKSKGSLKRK
SMILES,"binding site on PTP1B (crystal structure) (PTP1B; crystal soaked with ligand, pdb entry 6W30)",inhibition of SHP1 (SHP1),solubility (crystal soaking experiments) (PTP1B)
C=C(C)[C@@H]1CC[C@@H](C)[C@@H]2CCC(C)=C[C@@H]21 [amorphadiene],binds to the same allosteric site targeted by benzbromarone derivatives,too weak to measure,
CC(C)=CCC=C(C)C1CC=C(C)CC1 (stereo not drawn) [α-bisabolene],,low potency,poor solubility
